The values below are quoted from earlier work in US20070232669A1, “N-phenylbenzotriazolyl c-kit inhibitors” (priority 2006, published 2007).

Where a name gives a salt, the structure may show the parent alone.

The subject of series [1] is MO7e human leukemia cells.
Series [2] has as its system MO7e human leukemia cells. The source holds these as a separate data set.

Regarding `Cc1ccc(NC(=O)c2ccc(CN3CCN(C)CC3)cc2)cc1Nc1nccc(-c2cccnc2)n1` [Gleevec, imatinib mesylate], in series [1], the “GM-CSF stimulated growth of MO7e human leukemia cells” value is given as “not affected”. For the same compound, the “Kit ligand-stimulated growth of MO7e human leukemia cells” value in series [2] is “inhibited”.
